Tests used:
K562 cells = assay: Cell growth/survival, K562; assay type: cell-based, human
From the text: It is difficult to determine precisely why Ro and R12–8–44–3 have such dramatically different behavior in this assay: one possibility is that Ro, a repurposed compound originally reported for activity unrelated to MSI2, may exert its cytotoxic effect in these cell lines through molecular targets unrelated to MSI2.

MSI2 = MSI2 (Homo sapiens, UniProt Q96DH6); assay: MS2-TRAP aptamer pull-down reporter assay in HEK293 cells; assay type: cell-based; design: HEK293 cells (with a high baseline MSI2 expression); endogenous in cells; host or cells: HEK293; settings: HEK293, 24 h treatment
From the text: Figure 5: Characterization of R12–8–44–3 in a reporter cell line. […] As a positive control, Ro 08–2750 (aka “Ro”) is also included in these studies. (B) Schematic of reporter assay. HEK293 cells are transfected with a plasmid encoding an arbitrary gene (Luc) with UAG repeats (to recruit MSI2) and MS2 repeats (for pulldown) appended to its 3’ UTR. The same vector also includes FLAG-labeled MS2-BP. Upon anti-FLAG immunoprecipitation (IP), the FLAG-labeled MS2-BP allows purification of the Luc mRNA along with any associated factors. (C) Prior to IP, cells express Luc mRNA to a similar extent irrespective of whether they were treated with DMSO, R12-neg, R12–8–44–3, or Ro. (D) Prior to IP (“input”), MSI2 is detected in all samples to a similar extent (as is KU-86 loading control). After pulldown of Luc mRNA, MSI2 is found associated with the mRNA in cells treated with DMSO or R12-neg, but not in cells that had been treated with R12–8–44–3 or Ro. Representative image is shown; quantification is plotted as the average of 2 independent experiments ± S.E.M. Statistical analysis was performed using unpaired two tailed t-test, with * indicating p<0.05. Uncropped Western blots from this experiment are provided as Figure S8.
To determine whether inhibition of MSI1/MSI2 by R12–8–44–3 would apply in a cellular context, we adapted an aptamer pull-down reporter assay that we previously used to validate candidate Musashi target genes. Briefly, our approach is a variation of the MS2-TRAP (MS2-tagged RNA affinity purification) method, which uses bacteriophage protein MS2-BP to extract from cells any factors that associate with RNAs containing a specific stem-loop structure (MS2) from the phage genome. Here, we designed an mRNA construct that would include a series of MS2 hairpins and also a MSI2 recognition sequence. We transfected this construct into cells that also express FLAG-tagged MS2-BP (a protein unrelated to MSI2). By affinity purification using the FLAG tag, proteins bound to the designed mRNA can be extracted from cells.
To test for inhibition of MSI2 in cells, we transfected HEK293 cells (with a high baseline MSI2 expression), with the pMS2-LUC-3’UTR from our previous studies. This vector appends onto the 3’UTR of an arbitrary gene (in this case luciferase) two key elements: UAG-motifs comprising a MSI2 recognition sequence, and a series of five MS2 hairpins. The same vector also encodes the FLAG-MS2-BP fusion needed for affinity purification (Figure 5b). Cells were then treated with each compound of interest for 24 h, and then the cells were subsequently harvested and used for anti-FLAG immunoprecipitation. […] Using qPCR we evaluated the amount of Luc mRNA in cells treated with R12–8–44–3, R12-neg, or Ro, and found this to be unchanged (Figure 5c).

PC9 cells = assay: CellTiter-Blue cell viability, PC9; assay type: cell-based, human; settings: PC9, 3 days, dose-response
Procedure: Figure 7: Cellular characterization of MSI2 inhibition by R12–8–44–3. (A) Quantification of mRNA immunoprecipitation (RIP) results. Cells were treated with 10 μM of the indicated compounds for 8 hours. After immunoprecipitation with anti-MSI2, mRNA targets were quantified. The amount of each target mRNA in the pulldown was calculated relative to the input, and results from all targets were normalized to PTP4A1. Treating cells with R12–8–44–3 disrupted the interaction with all four cognate mRNAs (PTP4A, SMAD3, EGFR, and MSI2). Data are presented as the average ± S.E.M. from at least 3 independent replicates. […] Cells were treated with indicated compounds at two concentrations (5 μM and 20 μM) for 48 hours, then protein levels of relevant MSI2 targets were determined (EGFR, SMAD3, and MSI2). One representative image is shown; quantification is presented as the average ± S.E.M. from at least 3 independent replicates, normalized first to beta-actin and then to DMSO-treated cells. (C) Cell viability dose-response quantified by CellTiter-Blue after 3 days (left) and cell proliferation with 10μM of compounds quantified by clonogenic assay after 7 days (right). […] (D) Cell viability quantified by clonogenic assay of PC9 cell line after 7-day treatment with 2 nM osimertinib (osi alone), osimertinib with 10 μM R12–8–44–3, or osimertinib with 10 μM R12-neg. […]

MSI2, sequence (Q96DH6 whole entry): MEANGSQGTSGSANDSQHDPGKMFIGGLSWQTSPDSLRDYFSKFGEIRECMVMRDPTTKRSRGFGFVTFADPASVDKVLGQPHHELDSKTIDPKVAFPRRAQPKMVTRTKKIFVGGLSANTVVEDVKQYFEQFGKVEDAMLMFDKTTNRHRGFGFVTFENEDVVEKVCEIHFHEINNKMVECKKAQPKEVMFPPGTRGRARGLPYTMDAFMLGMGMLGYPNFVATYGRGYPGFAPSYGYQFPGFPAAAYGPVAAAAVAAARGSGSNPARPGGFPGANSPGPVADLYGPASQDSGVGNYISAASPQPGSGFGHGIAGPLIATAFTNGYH

Cc1cc(C(=O)OCc2nc(N)c3c(C)c(C)sc3n2)c(N)cc1F [R12–8–44–3]
cell growth/survival (K562 cells): results in alignment with our observations from PC9 cells | MSI2 purified with reporter mRNA (anti-FLAG pulldown) (MSI2): much less MSI2 is purified | total amount of MSI2 in cells (MSI2; input prior to IP): unaffected | amount of Luc mRNA in cells (qPCR) (MSI2; prior to IP): unchanged | cell viability (CellTiter-Blue) (PC9 cells): no effect on cell growth/survival

Source: PMC9882606, “Rationally designed inhibitors of the Musashi protein-RNA interaction by hotspot mimicry” (Research Square, 2023)
